Laboratory results reported in publication PMC10490032, “From Monoamine Oxidase Inhibition to Antiproliferative Activity: New Biological Perspectives for Polyamine Analogs” (Molecules, 2023).

Legend:
[1] = tested on: MAO activity in LN-229 lysates; assay: MAO activity in LN-229 cell lysates, kynuramine assay; conditions: for Residual MAO activity in lysates: fraction of control
[2] = tested on: LN-229 glioblastoma cell line; assay: Inhibition growth assay, Trypan blue exclusion; type: cell-based, human; conditions: LN-229, 48 h of incubation, mean ± SD of five independent experiments in duplicate
Description: On this basis, we investigated the antiproliferative effect of compounds 1–7 on LN-229, a human glioblastoma cell line. Compound 1 and the well-known antitumor drug doxorubicin were taken as references. […] The data in Table 3 support the lack of cytotoxicity of compound 1.
The LN-229 (human glioblastoma) was purchased from the American Type Culture Collection (ATCC) and cultured in DMEM (D2902, Sigma Chemical Co., St. Louis, MO, USA) supplemented with 3.5 g/L of glucose and 5% heat-inactivated fetal calf serum (FCS) (F7524, Sigma Chemical Co.), respectively. A total of 100 U/mL of penicillin, 100 μg/mL of streptomycin, and 0.25 μg/mL of amphotericin B (Sigma Chemical Co.) were added to the medium. Cells were cultured at 37 °C in a humidified atmosphere incubator containing 5% carbon dioxide in air.
Cells (3–6 × 10^4/well) were seeded into a 24-well cell culture plate; after 24 h, different concentrations of the test compounds or reference drug were added. After 48 h of incubation in standard conditions, the cell viability was determined by using a Trypan blue exclusion assay. Briefly, cells were detached by using a […] and 0.3 mM EDTA solution in PBS and stained with 0.1% Trypan blue solution in PBS. Unstained viable cells were immediately counted in a Burker chamber. The percentage of viable cells was calculated with respect to the untreated control culture. […] The goodness of the fit was expressed by the r^2 coefficient, and the best fit report included the analysis of variance corrected for the mean of the observations with the p values (p < 0.005 for all the tested compounds). Data are the means ± SD of at least five independent experiments in duplicate.

[3] = molecular target: T1, human recombinant MAO A (Homo sapiens, UniProt P21397); assay: MAO A inhibition, kynuramine assay (4-hydroxyquinoline fluorescence); conditions: for Reversibility of MAO A inhibition: 5 μM compound for 25 min, diluted 50 times, 300 μM kynuramine; for Mode of inhibition of MAO A: Lineweaver–Burk plots / global fit; for Time dependence of MAO A inhibition (Vo/VI ratio): pre-incubation 0 to 30 min with 2.5 μM compound
T1 sequence (P21397 1-527): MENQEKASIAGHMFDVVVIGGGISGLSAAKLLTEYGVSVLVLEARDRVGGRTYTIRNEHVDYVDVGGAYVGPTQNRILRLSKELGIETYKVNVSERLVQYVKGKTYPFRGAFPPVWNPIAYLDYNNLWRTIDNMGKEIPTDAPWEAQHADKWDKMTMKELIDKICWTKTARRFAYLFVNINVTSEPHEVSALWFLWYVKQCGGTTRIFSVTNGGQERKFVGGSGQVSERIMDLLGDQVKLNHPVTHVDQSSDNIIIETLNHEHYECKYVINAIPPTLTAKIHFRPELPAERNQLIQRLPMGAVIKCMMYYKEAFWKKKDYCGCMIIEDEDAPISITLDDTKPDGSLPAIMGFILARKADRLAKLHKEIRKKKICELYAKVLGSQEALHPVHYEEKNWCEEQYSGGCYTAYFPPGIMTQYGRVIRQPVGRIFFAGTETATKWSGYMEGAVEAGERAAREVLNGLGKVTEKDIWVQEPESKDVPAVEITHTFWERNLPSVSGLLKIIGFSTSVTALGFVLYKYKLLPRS

[4] = molecular target: T2, human recombinant MAO B (Homo sapiens, UniProt P27338); assay: MAO B inhibition, kynuramine assay (4-hydroxyquinoline fluorescence); conditions: for Mode of inhibition of MAO B: Lineweaver–Burk plots / global fit (compound 7: Figure S1); for Reversibility of MAO B inhibition: 5 μM compound for 25 min, diluted 50 times, 300 μM kynuramine; for Time dependence of MAO B inhibition (Vo/VI ratio): pre-incubation 0 to 30 min with 2.5 μM compound
T2 sequence (P27338 1-520): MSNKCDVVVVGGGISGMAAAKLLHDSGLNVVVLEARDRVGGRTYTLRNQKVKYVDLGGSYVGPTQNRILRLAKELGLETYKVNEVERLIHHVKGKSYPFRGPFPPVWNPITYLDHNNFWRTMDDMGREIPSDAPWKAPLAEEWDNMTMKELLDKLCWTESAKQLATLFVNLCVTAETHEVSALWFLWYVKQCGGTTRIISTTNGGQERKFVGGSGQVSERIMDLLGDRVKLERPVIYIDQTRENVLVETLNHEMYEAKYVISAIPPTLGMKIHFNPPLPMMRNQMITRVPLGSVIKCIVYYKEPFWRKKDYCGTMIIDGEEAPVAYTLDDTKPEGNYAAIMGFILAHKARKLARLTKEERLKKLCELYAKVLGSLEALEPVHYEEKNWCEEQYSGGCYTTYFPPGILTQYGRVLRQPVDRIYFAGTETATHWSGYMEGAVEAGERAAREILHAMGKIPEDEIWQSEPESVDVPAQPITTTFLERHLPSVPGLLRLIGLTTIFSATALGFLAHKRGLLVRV

[5] = molecular target: T3, human VAP-1 (Homo sapiens, UniProt Q16853); assay: VAP-1 amine oxidase activity, Amplex Red/horseradish peroxidase assay, benzylamine as substrate
T3 sequence (Q16853 1-763): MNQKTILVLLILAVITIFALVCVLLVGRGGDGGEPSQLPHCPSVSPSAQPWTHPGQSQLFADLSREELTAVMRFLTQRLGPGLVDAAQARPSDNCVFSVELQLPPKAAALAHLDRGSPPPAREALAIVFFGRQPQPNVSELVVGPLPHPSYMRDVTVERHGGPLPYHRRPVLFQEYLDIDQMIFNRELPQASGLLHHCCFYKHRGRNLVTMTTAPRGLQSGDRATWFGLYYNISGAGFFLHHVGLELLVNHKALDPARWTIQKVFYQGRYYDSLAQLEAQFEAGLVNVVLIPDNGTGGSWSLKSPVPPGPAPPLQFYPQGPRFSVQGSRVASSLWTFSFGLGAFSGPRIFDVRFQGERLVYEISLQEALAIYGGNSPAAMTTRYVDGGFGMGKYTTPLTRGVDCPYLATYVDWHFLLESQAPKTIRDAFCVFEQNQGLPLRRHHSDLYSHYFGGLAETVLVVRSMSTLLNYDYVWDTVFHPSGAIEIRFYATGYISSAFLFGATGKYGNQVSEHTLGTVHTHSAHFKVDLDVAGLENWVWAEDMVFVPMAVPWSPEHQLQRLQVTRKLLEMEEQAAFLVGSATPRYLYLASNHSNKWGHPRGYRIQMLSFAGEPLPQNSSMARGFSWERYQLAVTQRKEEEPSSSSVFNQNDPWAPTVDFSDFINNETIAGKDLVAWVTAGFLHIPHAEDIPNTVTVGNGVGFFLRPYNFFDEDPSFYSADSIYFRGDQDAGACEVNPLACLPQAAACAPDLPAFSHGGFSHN

[6] = molecular target: T3, human VAP-1; parameters: Biothie Therapies Cor; (Turku, Finland), gift; method as in PMID 21858471, PMID 30829081; conditions: previous studies ref 35, 40; cited from earlier work
[7] = molecular target: murine SMOX (Mus musculus, UniProt Q99K82); parameters: made in house; host or cells: E. coli BL21 DE3; conditions: previous studies ref 35, 40; cited from earlier work
murine SMOX, sequence (Q99K82 whole entry): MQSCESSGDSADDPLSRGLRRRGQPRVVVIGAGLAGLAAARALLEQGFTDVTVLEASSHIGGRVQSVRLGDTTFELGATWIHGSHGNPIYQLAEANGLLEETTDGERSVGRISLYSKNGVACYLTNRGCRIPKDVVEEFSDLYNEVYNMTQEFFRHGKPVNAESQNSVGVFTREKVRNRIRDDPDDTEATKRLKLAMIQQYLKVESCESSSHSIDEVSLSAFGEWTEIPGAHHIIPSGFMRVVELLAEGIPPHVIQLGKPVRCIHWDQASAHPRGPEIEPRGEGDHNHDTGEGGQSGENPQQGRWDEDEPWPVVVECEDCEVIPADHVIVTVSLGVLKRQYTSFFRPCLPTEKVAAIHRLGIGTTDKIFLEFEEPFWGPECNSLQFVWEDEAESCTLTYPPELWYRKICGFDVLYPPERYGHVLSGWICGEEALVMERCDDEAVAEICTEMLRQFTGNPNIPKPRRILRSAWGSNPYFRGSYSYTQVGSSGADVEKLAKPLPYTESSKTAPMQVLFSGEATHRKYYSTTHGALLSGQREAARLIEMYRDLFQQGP

[8] = inhibitor 5 nM, 15 min pre-incubation, 300 μM kynuramine
[9] = MAO A Ki, human recombinant MAO A, kynuramine 10 μM, from slope of Vo/VI vs compound concentration (1.25–40 μM), mean ± S.D.
[10] = MAO B Ki, human recombinant MAO B, kynuramine 10 μM, from slope of Vo/VI vs compound concentration (1.25–40 μM), mean ± S.D.
[11] = inhibitor 0.2 μM, 20 μM kynuramine
[12] = KI (inhibition constant for the free enzyme) vs. MAO A, global fit, mixed model, inhibitor 0.25–2 μM, kynuramine varied
[13] = KIES (dissociation constant for the enzyme–substrate complex) vs. MAO A, global fit, mixed model, inhibitor 0.25–2 μM, kynuramine varied
[14] = kynuramine 20 μM, compound 0.05–8 μM
[15] = KI (inhibition constant for the free enzyme) vs. MAO B, global fit, mixed model, inhibitor 0.25–2 μM, kynuramine varied
[16] = KIES (dissociation constant for the enzyme–substrate complex) vs. MAO B, global fit, mixed model, inhibitor 0.25–2 μM, kynuramine varied

C#CCN(C)CCCOc1ccc(Cl)cc1Cl [Clorgyline, clorgyline]
Residual MAO activity in lysates [1, 8]: 0.34 ± 0.10

C#CCN(C)Cc1ccccc1 [Pargyline, pargyline]
Residual MAO activity in lysates ([1]; inhibitor 0.5 mM, 15 min pre-incubation, 300 μM kynuramine): 0.03 ± 0.02
Residual activity in lysates after pre-incubation ([1]; pargyline pre-incubation 15 min, kynuramine 300 μM): about 3%

COc1ccccc1CNCCCCCCN1Cc2ccc3c4c(ccc(c24)C1)CN(CCCCCCNCc1ccccc1OC)C3 [Compound 6]
GI50 ([2]; Homo sapiens, LN-229, 48 h): 2000 ± 900 nM
Ki [3, 9]: 37000 ± 4000 nM
Ki [4, 10]: 27000 ± 4000 nM

COc1ccc2c(c1)[nH]c1c(C)nccc12 [Harmine, reference compound]
Residual MAO activity in lysates [1, 11]: 0.37 ± 0.08
Ki ([4]; MAO B Ki, human recombinant MAO B, kynuramine 10 μM, […], mean ± S.D.): > 10000 nM

COc1ccccc1CNCCCCCCN1C(=O)c2ccc3c4c(ccc(c24)C1=O)C(=O)N(CCCCCCNCc1ccccc1OC)C3=O [Compound 7]
GI50 ([2]; Homo sapiens, LN-229, 48 h): 400 ± 100 nM
Ki [3, 9]: 3200 ± 200 nM
Mode of inhibition of MAO B [4]: mainly competitive/mixed
Ki [4, 10]: 4200 ± 300 nM

COc1ccccc1CNCCCCCCNc1ccc(CCc2ccc(NCCCCCCNCc3ccccc3OC)cc2)cc1 [Compound 4]
GI50 ([2]; Homo sapiens, LN-229, 48 h): < 1000 nM
GI50 [2]: 900 ± 200 nM
Reversibility of MAO A inhibition [3]: full reversibility
Ki [3, 12]: 620 ± 110 nM
Ki [3, 13]: 11000 ± 2000 nM
Mode of inhibition of MAO A [3]: mainly competitive/mixed
Ki [3, 9]: 900 ± 200 nM
Time dependence of MAO A inhibition (Vo/VI ratio) ([3]; kynuramine 10 μM): no time dependence of the inhibition was observed
Effect on MAO activity in LN-229 lysates [1, 14]: not affected
Reversibility of MAO B inhibition [4]: full reversibility
Ki [4, 15]: 310 ± 50 nM
Ki [4, 16]: 15000 ± 2000 nM
Mode of inhibition of MAO B [4]: mainly competitive/mixed
Ki [4, 10]: 300 ± 100 nM
Time dependence of MAO B inhibition (Vo/VI ratio) ([4]; kynuramine 10 μM): no time dependence of the inhibition was observed

COc1ccccc1CNCCCCCC(=O)Nc1ccc(CCc2ccc(NC(=O)CCCCCNCc3ccccc3OC)cc2)cc1 [Compound 5]
Ki [5]: ~50000 nM
GI50 ([2]; Homo sapiens, LN-229, 48 h): < 1000 nM
GI50 [2]: 800 ± 100 nM
Reversibility of MAO A inhibition [3]: full reversibility
Ki [3, 12]: 620 ± 90 nM
Ki [3, 13]: 14000 ± 2000 nM
Mode of inhibition of MAO A [3]: mainly competitive/mixed
Ki [3, 9]: 600 ± 100 nM
Time dependence of MAO A inhibition (Vo/VI ratio) ([3]; kynuramine 10 μM): no time dependence of the inhibition was observed
Effect on MAO activity in LN-229 lysates [1, 14]: concentration-dependent inhibition
Ki ([1]; read-out: Ki for MAO activity in LN-229 lysates, kynuramine 20 μM, compound 0.05–8 μM): 2000 nM
Reversibility of MAO B inhibition [4]: full reversibility
Ki [4, 15]: 160 ± 40 nM
Ki [4, 16]: 6000 ± 1000 nM
Mode of inhibition of MAO B [4]: mainly competitive/mixed
Ki [4, 10]: 200 ± 100 nM
Time dependence of MAO B inhibition (Vo/VI ratio) ([4]; kynuramine 10 μM): no time dependence of the inhibition was observed

COc1ccccc1CNCCCCCCNCCCCCCCCNCCCCCCNCc1ccccc1OC [Compound 1, methoctramine, reference compound]
Inhibition of VAP-1 [6]: very poorly active
GI50 ([2]; Homo sapiens): > 20000 nM
Ki [3, 9]: 290000 ± 60000 nM
Inhibition of SMOX [7]: more effective than 2
Ki [4, 10]: 470000 ± 50000 nM

COc1cccc2c1C(=O)c1c(O)c3c(c(O)c1C2=O)C[C@@](O)(C(=O)CO)C[C@@H]3O[C@H]1C[C@H](N)[C@H](O)[C@H](C)O1 [DOXO, doxorubicin, reference compound]
GI50 ([2]; Homo sapiens, LN-229, 48 h): 12 ± 4 nM

C#CCN(C)[C@H](C)Cc1ccccc1 [Deprenyl, deprenyl]
Residual MAO activity in lysates [1, 8]: 0.74 ± 0.04

NCCC(=O)c1ccccc1N [kynuramine, reference compound]
Km ([1]; read-out: apparent KM in LN-229 lysates, substrate, Michaelis–Menten fit): 25 ± 3 µM
Km ([4]; read-out: KM for MAO B, substrate, human recombinant MAO B): 27 ± 4 µM

C[C@H](NCc1ccc(OCc2cccc(F)c2)cc1)C(N)=O [Safinamide]
Residual MAO activity in lysates [1, 11]: 0.66 ± 0.04
